Data as given in the kinase profiling compilation of Christmann-Franck et al. (2016).

Key:
Experiment in all cases: KINOMEscan competition binding
Settings in all cases: compound 2.0 µM
[1] = system: ABL1 (human), P00519 [M351T]
AKT3 (human) = AKT3 (human) (UniProt Q9Y243)
ANKK1 (human) = ANKK1 (human) (UniProt Q8NFD2)
BMPR1B (human) = BMPR1B (human) (UniProt O00238)
CDC2L2 (human) = CDC2L2 (human) (UniProt Q9UQ88)
CDK15 (human) = CDK15 (human) (UniProt Q96Q40)
CSF1R (human) = CSF1R (human) (UniProt P07333)
DAPK2 (human) = DAPK2 (human) (UniProt Q9UIK4)
DCLK3 (human) = DCLK3 (human) (UniProt Q9C098)
DDR1 (human) = DDR1 (human) (UniProt Q08345)
[2] = system: EGFR (human), P00533 [746-750 del]
[3] = system: EGFR (human), P00533 [A750P; 747-749 del]
EPHA4 (human) = EPHA4 (human) (UniProt P54764)
EPHA6 (human) = EPHA6 (human) (UniProt Q9UF33)
FGFR1 (human) = FGFR1 (human) (UniProt P11362)
FRK (human) = FRK (human) (UniProt P42685)
GRK4 (human) = GRK4 (human) (UniProt P32298)
GRK7 (human) = GRK7 (human) (UniProt Q8WTQ7)
IRAK3 (human) = IRAK3 (human) (UniProt Q9Y616)
[4] = target: JAK3 JH1 catalytic (human) (UniProt P52333)
[5] = system: KIT (human), P10721 [D816V]
[6] = system: KIT (human), P10721 [V559D]
LATS1 (human) = LATS1 (human) (UniProt O95835)
MAP2K6 (human) = MAP2K6 (human) (UniProt P52564)
MAP3K7 (human) = MAP3K7 (human) (UniProt O43318)
MAP3K9 (human) = MAP3K9 (human) (UniProt P80192)
MAPKAPK2 (human) = MAPKAPK2 (human) (UniProt P49137)
MKNK2 (human) = MKNK2 (human) (UniProt Q9HBH9)
MST4 (human) = MST4 (human) (UniProt Q9P289)
MTOR (human) = MTOR (human) (UniProt P42345)
MYO3B (human) = MYO3B (human) (UniProt Q8WXR4)
NTRK3 (human) = NTRK3 (human) (UniProt Q16288)
PDGFRB (human) = PDGFRB (human) (UniProt P09619)
PHKG2 (human) = PHKG2 (human) (UniProt P15735)
PIP4K2B (human) = PIP4K2B (human) (UniProt P78356)
PRKG2 (human) = PRKG2 (human) (UniProt Q13237)
RPS6KA4 KD1 (human) = RPS6KA4 KD1 (human) (UniProt O75676)
RPS6KA4 KD2 (human) = RPS6KA4 KD2 (human) (UniProt O75676)
STK36 (human) = STK36 (human) (UniProt Q9NRP7)
TSSK1B (human) = TSSK1B (human) (UniProt Q9BXA7)
ULK2 (human) = ULK2 (human) (UniProt Q8IYT8)
YSK4 (human) = YSK4 (human) (UniProt Q56UN5)
ZAP70 (human) = ZAP70 (human) (UniProt P43403)

Chain of MST4 (human) (Q9P289 whole entry, looked up): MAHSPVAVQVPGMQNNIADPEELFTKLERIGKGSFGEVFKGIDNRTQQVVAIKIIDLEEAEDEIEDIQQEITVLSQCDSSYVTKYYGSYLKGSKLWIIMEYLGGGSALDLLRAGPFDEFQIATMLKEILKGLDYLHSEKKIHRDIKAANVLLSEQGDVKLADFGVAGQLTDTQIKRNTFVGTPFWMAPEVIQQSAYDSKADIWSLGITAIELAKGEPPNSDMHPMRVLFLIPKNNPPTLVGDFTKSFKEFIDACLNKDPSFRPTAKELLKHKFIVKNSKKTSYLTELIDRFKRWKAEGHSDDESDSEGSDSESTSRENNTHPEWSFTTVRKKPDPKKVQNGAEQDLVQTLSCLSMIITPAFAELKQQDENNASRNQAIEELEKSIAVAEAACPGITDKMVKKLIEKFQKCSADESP
Chain of NTRK3 (human) (Q16288 whole entry, looked up): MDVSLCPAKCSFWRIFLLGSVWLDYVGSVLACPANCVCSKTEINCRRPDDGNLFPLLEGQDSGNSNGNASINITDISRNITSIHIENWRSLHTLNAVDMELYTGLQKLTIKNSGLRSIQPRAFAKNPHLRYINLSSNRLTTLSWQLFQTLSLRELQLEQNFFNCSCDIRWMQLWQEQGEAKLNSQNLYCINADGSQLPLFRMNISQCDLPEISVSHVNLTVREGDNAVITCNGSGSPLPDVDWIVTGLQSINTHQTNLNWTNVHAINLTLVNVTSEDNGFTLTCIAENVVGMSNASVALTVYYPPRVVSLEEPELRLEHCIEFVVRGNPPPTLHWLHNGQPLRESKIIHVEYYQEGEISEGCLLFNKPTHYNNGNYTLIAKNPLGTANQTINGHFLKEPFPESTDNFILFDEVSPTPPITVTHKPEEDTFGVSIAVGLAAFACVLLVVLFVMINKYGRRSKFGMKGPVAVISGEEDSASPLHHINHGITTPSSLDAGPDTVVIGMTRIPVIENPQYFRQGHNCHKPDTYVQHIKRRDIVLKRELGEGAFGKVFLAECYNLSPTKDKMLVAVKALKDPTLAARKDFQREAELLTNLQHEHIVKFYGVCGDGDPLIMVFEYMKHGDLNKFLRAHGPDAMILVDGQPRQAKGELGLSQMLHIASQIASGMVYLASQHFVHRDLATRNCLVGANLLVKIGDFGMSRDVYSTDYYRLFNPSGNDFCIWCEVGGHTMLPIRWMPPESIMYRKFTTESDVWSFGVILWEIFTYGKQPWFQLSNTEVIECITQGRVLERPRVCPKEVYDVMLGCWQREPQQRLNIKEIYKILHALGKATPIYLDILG
Chain of YSK4 (human) (Q56UN5 whole entry, looked up): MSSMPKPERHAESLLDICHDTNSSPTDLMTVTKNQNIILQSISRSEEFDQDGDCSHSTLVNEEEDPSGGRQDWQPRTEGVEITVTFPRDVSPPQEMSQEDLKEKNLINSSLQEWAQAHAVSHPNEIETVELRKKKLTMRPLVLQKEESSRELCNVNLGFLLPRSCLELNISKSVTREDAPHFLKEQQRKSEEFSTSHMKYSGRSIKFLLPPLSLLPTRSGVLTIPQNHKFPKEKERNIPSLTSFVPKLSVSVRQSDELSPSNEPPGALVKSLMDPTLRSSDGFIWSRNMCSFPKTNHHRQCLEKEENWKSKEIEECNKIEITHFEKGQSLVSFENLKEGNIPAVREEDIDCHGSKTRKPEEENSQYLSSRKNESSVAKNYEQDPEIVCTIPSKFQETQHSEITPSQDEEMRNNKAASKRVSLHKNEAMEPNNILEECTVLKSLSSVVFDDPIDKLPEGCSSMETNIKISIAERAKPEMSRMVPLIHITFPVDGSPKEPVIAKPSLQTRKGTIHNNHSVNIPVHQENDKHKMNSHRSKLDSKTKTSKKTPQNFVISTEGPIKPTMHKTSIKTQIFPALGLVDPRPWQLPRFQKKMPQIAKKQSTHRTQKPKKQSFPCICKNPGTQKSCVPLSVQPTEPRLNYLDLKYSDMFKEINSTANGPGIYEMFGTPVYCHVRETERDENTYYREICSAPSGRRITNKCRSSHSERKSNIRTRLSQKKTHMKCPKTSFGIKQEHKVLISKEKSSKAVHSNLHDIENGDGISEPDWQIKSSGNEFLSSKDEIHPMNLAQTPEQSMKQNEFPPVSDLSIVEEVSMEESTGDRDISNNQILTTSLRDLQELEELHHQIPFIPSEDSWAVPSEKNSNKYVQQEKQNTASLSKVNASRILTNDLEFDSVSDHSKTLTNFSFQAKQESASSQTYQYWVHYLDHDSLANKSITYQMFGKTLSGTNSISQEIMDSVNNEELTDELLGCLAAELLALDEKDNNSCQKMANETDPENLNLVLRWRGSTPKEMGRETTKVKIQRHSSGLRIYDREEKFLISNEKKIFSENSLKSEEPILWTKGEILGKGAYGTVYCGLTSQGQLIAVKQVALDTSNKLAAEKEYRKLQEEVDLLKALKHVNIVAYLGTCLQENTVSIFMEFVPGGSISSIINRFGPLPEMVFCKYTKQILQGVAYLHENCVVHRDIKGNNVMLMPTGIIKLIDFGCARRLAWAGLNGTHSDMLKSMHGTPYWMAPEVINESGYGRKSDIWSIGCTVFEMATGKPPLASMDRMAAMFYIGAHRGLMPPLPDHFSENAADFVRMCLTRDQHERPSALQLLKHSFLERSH
Chain of MYO3B (human) (Q8WXR4 whole entry, looked up): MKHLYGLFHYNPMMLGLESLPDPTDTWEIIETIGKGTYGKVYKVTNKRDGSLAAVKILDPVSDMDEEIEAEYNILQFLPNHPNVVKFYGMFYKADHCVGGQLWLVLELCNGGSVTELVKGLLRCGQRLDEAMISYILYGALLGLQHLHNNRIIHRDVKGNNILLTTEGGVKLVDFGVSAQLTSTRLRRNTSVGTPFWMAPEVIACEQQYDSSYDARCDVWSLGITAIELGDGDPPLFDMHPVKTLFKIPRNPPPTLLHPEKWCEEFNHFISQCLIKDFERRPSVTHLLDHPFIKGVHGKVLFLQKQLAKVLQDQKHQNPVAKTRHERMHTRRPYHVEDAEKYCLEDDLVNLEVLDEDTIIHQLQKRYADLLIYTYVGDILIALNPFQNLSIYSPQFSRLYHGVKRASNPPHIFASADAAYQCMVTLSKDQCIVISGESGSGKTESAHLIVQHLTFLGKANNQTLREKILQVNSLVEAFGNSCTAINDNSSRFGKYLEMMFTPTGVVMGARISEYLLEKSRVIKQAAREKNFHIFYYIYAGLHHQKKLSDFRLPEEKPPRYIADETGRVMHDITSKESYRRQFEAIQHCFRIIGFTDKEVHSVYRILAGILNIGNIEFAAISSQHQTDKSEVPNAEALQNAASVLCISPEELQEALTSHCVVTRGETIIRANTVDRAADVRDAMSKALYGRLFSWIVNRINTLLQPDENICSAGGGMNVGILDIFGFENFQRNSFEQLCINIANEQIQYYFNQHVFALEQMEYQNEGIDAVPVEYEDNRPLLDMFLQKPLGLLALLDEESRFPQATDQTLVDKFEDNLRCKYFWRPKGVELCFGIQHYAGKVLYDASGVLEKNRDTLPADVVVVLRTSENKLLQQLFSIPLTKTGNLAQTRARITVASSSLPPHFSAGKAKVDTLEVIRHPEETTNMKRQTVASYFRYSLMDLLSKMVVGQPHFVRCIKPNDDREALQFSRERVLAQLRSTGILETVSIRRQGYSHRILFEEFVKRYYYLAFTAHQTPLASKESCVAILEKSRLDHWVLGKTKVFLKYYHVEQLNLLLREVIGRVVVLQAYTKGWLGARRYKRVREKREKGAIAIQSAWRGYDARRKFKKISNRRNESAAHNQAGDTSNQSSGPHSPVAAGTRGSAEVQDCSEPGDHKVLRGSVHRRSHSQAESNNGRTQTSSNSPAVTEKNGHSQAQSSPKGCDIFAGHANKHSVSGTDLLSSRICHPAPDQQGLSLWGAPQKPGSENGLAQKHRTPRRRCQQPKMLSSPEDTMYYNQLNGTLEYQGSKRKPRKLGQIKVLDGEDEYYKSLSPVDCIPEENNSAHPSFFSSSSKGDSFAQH
Chain of PRKG2 (human) (Q13237 whole entry, looked up): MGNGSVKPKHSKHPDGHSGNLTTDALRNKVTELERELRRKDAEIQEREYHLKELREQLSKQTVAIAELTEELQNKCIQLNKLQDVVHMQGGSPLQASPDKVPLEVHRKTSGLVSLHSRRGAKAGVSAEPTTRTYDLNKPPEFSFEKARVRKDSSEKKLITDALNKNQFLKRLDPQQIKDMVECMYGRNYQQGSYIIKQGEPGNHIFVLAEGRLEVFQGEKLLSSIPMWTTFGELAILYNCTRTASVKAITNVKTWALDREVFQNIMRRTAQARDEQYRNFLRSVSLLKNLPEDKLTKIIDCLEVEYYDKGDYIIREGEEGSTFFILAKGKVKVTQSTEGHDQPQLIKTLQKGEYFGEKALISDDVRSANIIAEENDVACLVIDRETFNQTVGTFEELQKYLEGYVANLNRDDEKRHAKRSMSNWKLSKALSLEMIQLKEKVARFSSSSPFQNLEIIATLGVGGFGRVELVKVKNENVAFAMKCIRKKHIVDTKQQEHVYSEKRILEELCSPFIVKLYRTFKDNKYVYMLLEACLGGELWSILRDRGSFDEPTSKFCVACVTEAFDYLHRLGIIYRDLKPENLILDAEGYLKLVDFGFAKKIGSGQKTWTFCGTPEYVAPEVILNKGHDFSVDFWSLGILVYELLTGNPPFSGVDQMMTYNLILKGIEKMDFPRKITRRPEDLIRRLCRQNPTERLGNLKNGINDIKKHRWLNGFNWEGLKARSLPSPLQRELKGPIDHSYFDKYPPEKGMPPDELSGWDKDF
Chain of DAPK2 (human) (Q9UIK4 whole entry, looked up): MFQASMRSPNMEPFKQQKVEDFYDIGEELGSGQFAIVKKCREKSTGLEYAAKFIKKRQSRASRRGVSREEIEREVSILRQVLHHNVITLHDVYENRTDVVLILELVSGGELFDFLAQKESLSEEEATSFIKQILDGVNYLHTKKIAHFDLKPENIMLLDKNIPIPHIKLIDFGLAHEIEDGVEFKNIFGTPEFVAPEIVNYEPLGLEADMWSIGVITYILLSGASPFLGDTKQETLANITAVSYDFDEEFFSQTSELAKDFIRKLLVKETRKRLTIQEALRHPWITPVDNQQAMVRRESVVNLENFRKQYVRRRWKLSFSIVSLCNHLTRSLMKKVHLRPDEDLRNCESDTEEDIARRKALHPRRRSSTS

## N#Cc1ccc2ncnc(NCCc3ccc4ccccc4c3)c2c1
[1]
  kinase still bound, per cent of control: 100%
AKT3 (human)
  kinase still bound, per cent of control: 98%
ANKK1 (human)
  kinase still bound, per cent of control: 100%
BMPR1B (human)
  kinase still bound, per cent of control: 90%
CDC2L2 (human)
  kinase still bound, per cent of control: 100%
CDK15 (human)
  kinase still bound, per cent of control: 100%
CSF1R (human)
  kinase still bound, per cent of control: 77%
DAPK2 (human)
  kinase still bound, per cent of control: 87%
DCLK3 (human)
  kinase still bound, per cent of control: 99%
DDR1 (human)
  kinase still bound, per cent of control: 96%
[2]
  kinase still bound, per cent of control: 100%
[3]
  kinase still bound, per cent of control: 83%
EPHA4 (human)
  kinase still bound, per cent of control: 100%
EPHA6 (human)
  kinase still bound, per cent of control: 100%
FGFR1 (human)
  kinase still bound, per cent of control: 92%
FRK (human)
  kinase still bound, per cent of control: 100%
GRK4 (human)
  kinase still bound, per cent of control: 89%
GRK7 (human)
  kinase still bound, per cent of control: 100%
IRAK3 (human)
  kinase still bound, per cent of control: 82%
[4]
  kinase still bound, per cent of control: 100%
[5]
  kinase still bound, per cent of control: 85%
[6]
  kinase still bound, per cent of control: 95%
LATS1 (human)
  kinase still bound, per cent of control: 93%
MAP2K6 (human)
  kinase still bound, per cent of control: 100%
MAP3K7 (human)
  kinase still bound, per cent of control: 78%
MAP3K9 (human)
  kinase still bound, per cent of control: 85%
MAPKAPK2 (human)
  kinase still bound, per cent of control: 100%
MKNK2 (human)
  kinase still bound, per cent of control: 98%
MST4 (human)
  kinase still bound, per cent of control: 77%
MTOR (human)
  kinase still bound, per cent of control: 80%
MYO3B (human)
  kinase still bound, per cent of control: 96%
NTRK3 (human)
  kinase still bound, per cent of control: 100%
PDGFRB (human)
  kinase still bound, per cent of control: 100%
PHKG2 (human)
  kinase still bound, per cent of control: 100%
PIP4K2B (human)
  kinase still bound, per cent of control: 100%
PRKG2 (human)
  kinase still bound, per cent of control: 100%
RPS6KA4 KD1 (human)
  kinase still bound, per cent of control: 83%
RPS6KA4 KD2 (human)
  kinase still bound, per cent of control: 90%
STK36 (human)
  kinase still bound, per cent of control: 100%
TSSK1B (human)
  kinase still bound, per cent of control: 100%
ULK2 (human)
  kinase still bound, per cent of control: 100%
YSK4 (human)
  kinase still bound, per cent of control: 86%
ZAP70 (human)
  kinase still bound, per cent of control: 94%
